Measurements as given in PMC8625357, “Metabolism of Selected 2-Arylbenzofurans in a Colon In Vitro Model System” (Foods, 2021).
Where “and” joins values, the source holds several entries; their conditions need not be identical. Identical values can stand only once.

Columns and labels:
[1] = test system: THP-1 human monocytic leukemic cell line; design: method as in PMID 24901948; conditions: read-out: cytotoxic activity; cited from earlier work
[2] = test system: human fecal microbiota; test: In vitro batch fermentation with human fecal microbiota; format: in vitro ADME; design: final concentration after 8 h of fermentation: reference not given here; conditions: for bacterial metabolites detected: feces from three donors, 8 h
Protocol: Using a batch fermentation model of the human colon, 2-arylbenzofurans were incubated after the addition of human fecal bacteria from three donors. Samples were collected at 0, 2, 4, and 8 h and the effect of microbiota on tested 2-arylbenzofurans was determined by UHPLC/MS HRAM.
Medium was prepared from 225 mL of distilled water, 112.5 mL of macromineral solution, 56.25 μL of micromineral solution, 562.5 μL of 0.1% resazurin solution, and 1.125 g of tryptone. The macromineral solution was prepared from 7.14 g of Na2HPO4, 6.2 g of KH2PO4, 0.6 g of MgSO4, and up to 1 L of distilled water. The micromineral solution was made of 2.64 g of CaCl2, 2 g of MnCl2, CoCl2, 1.6 g of FeCl3, and up to 20 mL of distilled water. CO3 buffer was created by mixing 1 g of NH4HCO3, 8.75 g of NaHCO3, and distilled water up to 250 mL.
Phosphate buffer for fecal slurries was created by dissolving 1.77 g of KH2PO4 in 195 mL of distilled water and 3.62 g of Na2HPO4 in 305 mL of distilled water (both 1/15M). The acidity of the mixed phosphate buffer was adjusted to a neutral pH by hydrochloric acid. The reducing solution was created by mixing 125 mg of cysteine hydrochloride, 125 mg of Na2S, 0.8 mL of 1M NaOH, and distilled water up to 20 mL.
Mulberrofuran Y (1), moracin C (2), and mulberrofuran G (3) were dissolved in DMSO to a final concentration of 10 mg/mL. After boiling the fermentation medium and sodium phosphate buffer, both were cooled to 37 °C. To remove oxygen, the samples were purged with nitrogen gas (approximately 30 min). The pH of the medium was equilibrated to neutral pH using HCl. For each fermentation bottle, 17.18 mL of fermentation medium and 0.8 mL of reducing solution were transferred to create fermentation vials. Fecal slurry was prepared immediately after sampling from each donor by homogenizing the collected feces in a stomacher bag with phosphate buffer to produce a 25% fecal slurry. After filtration through the mesh, 2 mL of the filtered fecal slurry were added to each fermentation bottle. Finally, 20 μL of the tested compound or DMSO as a negative control were added. The bottles were incubated at 37 °C for 8 h with stirring at 100 strokes per minute. Aliquots of fecal suspensions were collected at 0, 2, 4, and 8 h, and stored at −80 °C until further analysis.
First, 400 μL sample of supernatant fluid were defrosted and centrifuged (5 min/15,000 RPM) and the pellet was erased. Supernatant was combined with 20 μL of ^13C6 trans-resveratrol in methanol (2 μg/mL), which was used as an internal standard. Samples were extracted 3 times with 2.5 mL of ethyl acetate and 2 mL of ultra-pure water. After liquid-liquid extraction, ethyl acetate was evaporated with nitrogen gas and redissolved in 1 mL of methanol (VWR Chemicals, Stribrna Skalice, Czech Republic) in combination with formic acid (Fisher Scientific, Merelbeke, Belgium) (1%).
(§1) The analysis was performed on an LC/MS system consisting of an Ultimate 3000 UPLC chromatograph Thermo Fisher Scientific (Waltham, MA, USA) coupled to an Impact II ultra-high resolution high mass accuracy mass spectrometer (HRAM) Q-TOF (Bruker Daltonics, Bremen, Germany) equipped with an electrospray ionization (ESI) source.
(§2) The separation was carried out on a Phenomenex F5 Kinetex column (1.7 μm 100 Å 100 × 2.1 mm) (Phenomenex, Torrance, CA, USA) by using a mobile phase consisting of 0.1% formic acid (solvent A) and methanol (solvent B). The binary gradient was run at a flow rate of 0.2 mL/min as follows: 0–3 min isocratic at 20% B, 3–6 min from 20% to 50% B, 6–15 min isocratic at 100% B, and 15–20 min isocratic at 20% B. The column oven was adjusted to 35 °C, and the injection volume was 5 μL.
For metabolite screening, the ESI source was set in both positive and negative mode. Semiquantitative analysis was performed in negative mode with the parameters listed in the Appendix A. Each compound was confirmed by MS/MS fragmentation with a collision energy voltage (20, 30, and 50 eV). […]

[3] = test system: Caco-2 cell line; test: Permeability and metabolism assay on Caco-2 cell line in Transwell plates; format: in vitro ADME, human; conditions: for Apical side (unchanged parent compound) / Basolateral side (unchanged parent compound) / Cells (unchanged parent compound) / Transformed (converted or metabolized): of the initial 20 μM as 100%, after 4 h; for Transformed (converted or metabolized): remainder
Protocol: as §1, §2
For metabolite screening, the ESI source was set in both positive and negative mode. Semiquantitative analysis was performed in negative mode with the parameters listed in the Appendix A. Each compound was confirmed by MS/MS fragmentation with a collision energy voltage (20, 30, and 50 eV). Data acquisition was performed using HyStar 3.2 SR4, Otof series 4.0 (Bruker Daltonics, Bremen, Germany) and Chromeleon Xpress (Thermo Fisher Scientific, Waltham, MA, USA) software and the data obtained were analyzed by using DataAnalysis 4.3. (Bruker Daltonics, Bremen, Germany). Commercially available standards of mulberrofuran Y (1), moracin C (2), and mulberrofuran G (3), each at 9 concentration levels ranging from 0.5–500 ng/mL, were used for calibration. A list of the 2-arylbenzofurans monitored in the samples is given in the Appendix B.
The Caco-2 cell lines were purchased from the American Type Tissue Collection (Rockville, MD, USA). Caco-2 cells in Transwells at passage 25 were used. More information on cell culture and passaging is described in [17].
Cells were cultured in DMEM-F12 (Dulbecco’s modified Eagles medium—Nutrient Mixture F-12) supplemented with 10% FBS (fetal bovine serum), 1% nonessential amino acids, 1% penicillin, and streptomycin, all obtained from Sigma-Aldrich (Prague, Czech Republic) in humidified air containing 5% CO2. Cells were seeded at a density of 2.6 × 10^5 cells/cm in 24-wells. The inserts were pre-filled with 50 µL of medium before seeding the cells. After seeding, the basolateral side of the chamber was filled with 1 mL of DMEM, and cells were grown in a humidified atmosphere of 5% CO2 at 37 °C. Non-adherent cells were removed by removing the medium after 6 h of incubation and replaced with 0.5 mL of fresh DMEM. The culture medium was replaced seven times a week for 21 to 25 days prior to the transport experiment.
The filter inserts containing a monolayer of the Caco-2 cell line were washed three times with HBBS (Hanks’ Balanced Salt solution) heated to 37 °C and pH 7.4. The integrity of the cell monolayer was confirmed by measuring the transepithelial electrical resistance (TEER), which had to be at least 600 Ω. After adding 25 µM lucifer yellow, the plates were incubated at 37 °C in 5% CO2 atmosphere for 1 h with shaking (150 rpm). Using a Tecan Infinite M200 reader (Excitation/Emission wavelength 480 nm/530 nm), the plates were measured. Only plates with an integrity greater than 95% were used in the following experiment.
Initially, 500 µL of 20 µM test substance solutions were added to the apical side of each insert and 1000 µL of HBSS were added to the basolateral side. At the same time, 50 µL were taken immediately from the apical side at the time point of 0 h. For future analysis, basolateral sampling times of 0.5, 1, 1.5, 2, 3, and 4 h were chosen while placing the plates in the incubator and using an orbital shaker (150 rpm). In this experiment, 500 µL of sample were always taken from the basolateral side and replaced with an equal amount of pure HBSS. After 4 h, the apical side was simultaneously removed, and the inserts were washed three times with HBSS. […]

[4] = test system: COX; design: method as in PMID 3097265; conditions: cited from earlier work
[5] = design: method as in PMID 15636183; conditions: cited from earlier work

| Compound | IC50 [1] | final concentration after 8 h of fermentation ([2]; donor D1) | final concentration after 8 h of fermentation ([2]; donor D2) | bacterial metabolites detected [2] | Apical side (unchanged parent compound) [3] | Basolateral side (unchanged parent compound) [3] | Cells (unchanged parent compound) [3] | Transformed (converted or metabolized) [3] | further results |
| --- | --- | --- | --- | --- | --- | --- | --- | --- | --- |
| CC(C)=CCc1c(O)cc(-c2cc3ccc(O)cc3o2)cc1O [Moracin C (2), moracin C] | 3.2 ± 0.13 µM | 66 ± 3% | 87 ± 10% | No metabolites were detected | 0.7 ± 0.2% | 0 ± 0% | 8.2 ± 0.5% | 91.1 ± 0.7% | Apical side (unchanged parent compound) ([3]; listed as moracin C (2)): 0.7 ± 0.2%; Cells (unchanged parent compound) ([3]; listed as moracin C (2)): 8.2% and 8.2 ± 0.5%; Transformed (converted or metabolized) ([3]; listed as moracin C (2)): 91.1 ± 0.7% |
| COc1c(O)cc2oc(-c3cc(O)cc(O)c3)cc2c1C/C=C(\C)CCC=C(C)C [Mulberrofuran Y (1), mulberrofuran Y] | 4.8 ± 0.19 µM | 25 ± 0% | 69 ± 8% | No metabolites were detected | 8.9 ± 5.9% | 0 ± 0% | 85.3 ± 19.9% | 5.8 ± 25.8% | became detectable on the basolateral side after ([3]; incubation time, basolateral sampling 0.5-4 h): 3 h; Apical side (unchanged parent compound) ([3]; listed as mulberrofuran Y (1)): 8.9 ± 5.9%; Basolateral side (unchanged parent compound) ([3]; listed as mulberrofuran Y (1)): no amount; Cells (unchanged parent compound) ([3]; listed as mulberrofuran Y (1)): 85.3% and 85.3 ± 19.9%; Transformed (converted or metabolized) ([3]; listed as mulberrofuran Y (1)): 5.8 ± 25.8% |
| CC1=CC2c3c(O)cc(-c4cc5ccc(O)cc5o4)cc3OC3(c4ccc(O)cc4O)Oc4cc(O)ccc4C(C1)C23 (centres unmarked) [Mulberrofuran G (3), mulberrofuran G] |  |  |  | No metabolites were detected | 2.7 ± 0.5% | 0 ± 0% | 14.0 ± 0.6% | 83.3 ± 1.1% | COX inhibitor [4]: inhibitor; concentration of parent compound after fermentation ([2]; after 8 h, initial 10 μg/mL, in 2 donors): 5000 ng/mL; concentration of parent compound, minimum ([2]; at 2 h, initial 10 μg/mL, the one donor in which compound was stable): 9000 ng/mL; concentration of parent compound after fermentation ([2]; at 8 h, initial 10 μg/mL, the one donor in which compound was stable): 10000 ng/mL; antimicrobial effects [5]: potent antimicrobial effects; Apical side (unchanged parent compound) ([3]; listed as mulberrofuran G (3)): 2.7 ± 0.5%; Basolateral side (unchanged parent compound) ([3]; listed as mulberrofuran G (3)): nothing; Cells (unchanged parent compound) ([3]; listed as mulberrofuran G (3)): 14% and 14.0 ± 0.6%; Transformed (converted or metabolized) ([3]; listed as mulberrofuran G (3)): 83.3 ± 1.1% |
